From patent publication EP1175222B1, “MONTHLY DOSES OF GLYCOPEPTIDE ANTIBIOTICS FOR LONG-TERM PREVENTION OF STREPTOCOCCUS PNEUMONIAE INFECTIONS” (ELI LILLY AND COMPANY, priority 1999, dated 2000)
In brackets after ≈: the same amount, converted by molar mass. Read-outs that look alike come from different tables or passages of the source.

Key:
[1] = system: S pyogenes C-203; assay: Mouse protection model, intraperitoneal bacterial challenge; format: in vivo; details: mice; dose protecting 50% from lethal infection; two subcutaneous doses 1 and 5 hours after challenge
Method: (§1) As listed in Table 2, N^DISACC-(4-(4-chlorophenyl)benzyl)A82846B appeared to have activity 30 to 40 times that of vancomycin when given subcutaneously to mice with systemic streptococcal or staphylococcal infections. […] In a murine model of systemic infection, various dosing regimens of N^DISACC-(4-(4-chlorophenyl)benzyl)A82846B administered subcutaneously were compared in animals inoculated intraperitoneally with either S pneumoniae or S aureus. The total dose ranged from 0.18 to 2.01 mg/kg body weight, subdivided into 1 to 24 doses during a 48-hour treatment period. Pharmacokinetic studies were performed in uninfected animals using a bioassay. Using multiple regression analysis to find the pharmacodynamic parameter associated with survival, time above the MIC appeared-to be more important (p<0.00001) than the maximum plasma concentration Cmax (p=0.01); however, for 1- and 2-dose regimens near the ED50, Cmax appeared to be the best predictor of outcome. A more detailed description of this study may be found in Knudsen, J., et al., "Pharmacodynamics of glycopeptides in Animal Models" Abstracts of the 20th International Congress of Chemotherapy, Abstract No. 4076, June (1997). […]

[2] = system: S pneumoniae Park I; assay: as above; format: in vivo; details: mice; dose protecting 50% from lethal infection; two subcutaneous doses 1 and 5 hours after challenge
Method: as §1

[3] = system: Streptococcus pneumoniae; assay: MIC90 by NCCLS broth microdilution against a worldwide collection of Streptococcus pneumoniae; format: cell-based
Method: (§2) The term "MIC" or "minimum inhibitory concentration" refers to the lowest concentration of the agent that prevents visible growth after 18 to 24 hours of incubation. "MIC90" refers to the lowest concentration of the agent that prevents 90% growth after 18 to 24 hours of incubation. "MBC" or "minimal bactericidal concentration" refers to the lowest concentration that results in a 99.9% decline in bacterial numbers. Although the value of the MBC as a clinical test has not been established, it may be useful in special instances where very precise knowledge of the ability of a given antimicrobial agent to kill a specific clinical isolate is critical, as in the therapy of bacterial endocarditis.
Table 1 lists the in vitro activity of N^DISACC-(4-(4-chlorophenyl)benzyl)A82846B and other compounds against a worldwide collection of Streptococcus pneumoniae. N^DISACC-(4-(4-chlorophenyl)benzyl)A82846B clearly demonstates a significant improvement against all three strains. […]
MICs were determined using NCCLS broth microdilution methodology (see, Fasola E., Spangler SK., Ednie LM., Jacobs MR., Bajaksouzian S., and Appelbaum PC., "Comparative activities of LY 333328 against penicillin-susceptible and -resistant pneumococci" Antimicrobial Agents & Chemotherapy, 40(11), 2661-3 (1996)).

[4] = system: penicillin-sensitive S. pneumoniae type 3 strain; assay: In-vivo rabbit model of S. pneumoniae meningitis (CSF measurements); details: rabbits
Method: (§3) At 12 h after infection, they were treated with a single dose of N^DISACC-(4-(4-chlorophenyl)benzyl)A82846B [1 mg/kg (n = 5), 2.5 mg/kg (n = 5), 10 mg/kg (n = 10), […] (n = 2)] . N^DISACC-(4-(4-chlorophenyl)benzyl)A82846B was dissolved in 5% glucose and infused over 30 min. Controls received a bolus of ceftriaxone (20 mg/kg body weight) followed by a continuous infusion of 10 mg/kg/h (n = 12). The cerebrospinal fluid (CSF) was drawn at 12, 14, 17, 20, and 24h for the determination of bacterial titers, leukocyte densities, lipoteichoic/teichoic acid, lactate and protein concentrations. The concentration of the neuron-specific enolase in CSF was measured at 24h. Bactericidal activity in CSF was estimated by log-linear regression of bacterial titers versus time. Additionally, time-kill curves were performed with 10 mg/l N^DISACC-(4-(4-chlorophenyl)benzyl)A82846B.

[5] = system: S.pneumoniae; assay: In vitro time-kill curves; format: cell-based; details: 10 mg/l
Method: as §3

[6] = system: S aureus SA027; assay: Mouse protection model, intraperitoneal bacterial challenge; format: in vivo; details: mice; dose protecting 50% from lethal infection; two subcutaneous doses 1 and 5 hours after challenge
Method: as §1

[7] = parameters: species or system mice; details: mouse, in vivo, sc
Method: as §1

[8] = system: S. pneumoniae; assay: Neutropenic model of S. pneumoniae bacteremia in mice; format: in vivo; details: subcutaneously or intravenously at doses ≥ 5 mg/kg body weight
[9] = parameters: species or system rats; details: rat, in vivo, 5 mg/kg
From the text: Although single doses of N^DISACC-(4-(4-chlorophenyl)benzyl)A82846B may provide high plasma concentrations for a prolonged period of time, it may also be highly desirable to maintain high concentrations in respiratory tissues (the main portal of initial tissue infection and invasion).

[10] = Safety and pharmacokinetics of single intravenous doses in eight healthy men; format: in vivo
Method: An open-label, uncontrolled, dose-escalation study was conducted with eight healthy men. All subjects were between 22 and 50 years of age and within 10% of their ideal body weights. Single does, ranging from 0.5 mg/kg body weight to 3 mg/kg body weight, were administered intravenously over 30 minutes. Plasma samples were collected just prior to the start of infusion and at intervals for 336 hours after the end of the infusion for assessment of drug concentration, biochemical and hematologic parameters. N^DISACC-(4-(4-chlorophenyl)benzyl) A82846B plasma and urine concentrations were determined by HPLC and competitive binding radioimmunoassay, respectively. Individual plasma concentration-time profiles were evaluated based on compartmental analysis techniques.

[11] = system: penicillin-sensitive S. pneumoniae type 3 strain; assay: MIC and MBC for the meningitis model strain; format: cell-based; details: penicillin-sensitive type 3 strain
Method: as §2
as §3, with “Bactericidal activity in CSF was estimated by log-linear regression of bacterial titers versus time. Additionally, time-kill curves were performed with 10 mg/l N^DISACC-(4-(4-chlorophenyl)benzyl)A82846B.” left out

[12] = Streptococcus pneumoniae, Intermediate N = 40 (penicillin-intermediate by NCCLS criteria), read-out: MIC90
[13] = Streptococcus pneumoniae, Resistant N = 42 (penicillin-resistant by NCCLS criteria), read-out: MIC90
[14] = Streptococcus pneumoniae, Sensitive N = 50 (penicillin-sensitive by NCCLS criteria), read-out: MIC90
[15] = Intermediate N = 40 (penicillin-intermediate by NCCLS criteria)
[16] = Resistant N = 42 (penicillin-resistant by NCCLS criteria)
[17] = Sensitive N = 50 (penicillin-sensitive by NCCLS criteria)
[18] = estimated by Lineweaver-Burk plot
[19] = healthy men, single i.v. dose 0.5 to 3 mg/kg over 30 minutes
[20] = healthy men, single i.v. dose 0.5 to 3 mg/kg over 30 minutes, normalized to dose and weight

CN[C@H](CC(C)C)C(=O)N[C@H]1C(=O)N[C@@H](CC(N)=O)C(=O)N[C@H]2C(=O)N[C@H]3C(=O)N[C@H](C(=O)N[C@H](C(=O)O)c4cc(O)cc(O)c4-c4cc3ccc4O)[C@H](O[C@H]3C[C@](C)(N)[C@@H](O)[C@H](C)O3)c3ccc(c(Cl)c3)Oc3cc2cc(c3O[C@@H]2O[C@H](CO)[C@@H](O)[C@H](O)[C@H]2O[C@H]2C[C@](C)(N)[C@@H](O)[C@H](C)O2)Oc2ccc(cc2Cl)[C@H]1O [A82846B]
ED50 [1]: 0.18 mg/kg/dose | ED50 [2]: 0.18 mg/kg/dose

CO/N=C(\C(=O)N[C@@H]1C(=O)N2C(C(=O)O)=C(CSc3nc(=O)c(=O)[nH]n3C)CS[C@H]12)c1csc(N)n1 [Ceftriaxone]
MIC90 [3, 12]: 0.5 µg/mL (≈ 0.902 µM) | MIC90 [3, 13]: 2 µg/mL (≈ 3.61 µM) | MIC90 [3, 14]: 0.06 µg/mL (≈ 0.108 µM) | bactericidal activity in CSF, Δlog CFU/ml/h ± SD ([4]; bolus 20 mg/kg body weight then continuous infusion of 10 mg/kg/h): -0.33 ± 0.15 Δlog CFU/ml/h | time until S.pneumoniae killed / cultures sterile [5]: 12 h

C[C@@H](O)[C@H]1C(=O)N2C(C(=O)O)=C(SCCN=CN)C[C@H]12 [Imipenem]
MIC90 [3, 12]: 0.125 µg/mL (≈ 0.418 µM) | MIC90 [3, 13]: 0.5 µg/mL (≈ 1.67 µM) | MIC90 [3, 14]: 0.03 µg/mL (≈ 0.1 µM)

CC1(C)S[C@@H]2[C@H](NC(=O)Cc3ccccc3)C(=O)N2[C@H]1C(=O)O [Penicillin G]
MIC90 [3, 15]: 1.0 µg/mL (≈ 2.99 µM) | MIC90 [3, 16]: 4.0 µg/mL (≈ 12 µM) | MIC90 [3, 17]: 0.06 µg/mL (≈ 0.179 µM)

CO[C@H]1/C=C/O[C@@]2(C)Oc3c(C)c(O)c4c(O)c(c(/C=N/N5CCN(C)CC5)c(O)c4c3C2=O)NC(=O)/C(C)=C\C=C\[C@H](C)[C@H](O)[C@@H](C)[C@@H](O)[C@@H](C)[C@H](OC(C)=O)[C@@H]1C [Rifampin]
MIC90 [3, 12]: 0.015 µg/mL (≈ 0.0182 µM) | MIC90 [3, 13]: > 8 µg/mL | MIC90 [3, 14]: 0.03 µg/mL (≈ 0.0365 µM)

CN[C@H](CC(C)C)C(=O)N[C@H]1C(=O)N[C@@H](CC(N)=O)C(=O)N[C@H]2C(=O)N[C@H]3C(=O)N[C@H](C(=O)N[C@H](C(=O)O)c4cc(O)cc(O)c4-c4cc3ccc4O)[C@H](O)c3ccc(c(Cl)c3)Oc3cc2cc(c3O[C@@H]2O[C@H](CO)[C@@H](O)[C@H](O)[C@H]2O[C@H]2C[C@](C)(N)[C@H](O)[C@H](C)O2)Oc2ccc(cc2Cl)[C@H]1O [Vancomycin]
ED50 [1]: 0.80 mg/kg/dose | ED50 [2]: 1-1 mg/kg/dose | ED50 [6]: 0.70 mg/kg/dose | MIC90 [3, 15]: 0.5 µg/mL (≈ 0.345 µM) | MIC90 [3, 16]: 0.5 µg/mL (≈ 0.345 µM) | MIC90 ([3]; Streptococcus pneumoniae): 0.5 µg/mL (≈ 0.345 µM)

N^DISACC-(4-(4-chlorophenyl)benzyl)A82846B
absorption following subcutaneous administration [7]: absorbed poorly | ED50 [1]: 0.045 mg/kg/dose | ED50 [2]: 0.028 mg/kg/dose | ED50 [6]: 0.009 mg/kg/dose | MIC90 [3, 15]: 0.015 µg/mL | MIC90 [3, 16]: 0.03 µg/mL | MIC90 [3, 17]: 0.008 µg/mL | effect on bacteremia [8]: eliminated bacteremia | lung tissue half life [9]: 29 days | mean concentration of the neuron-specific enolase in CSF at 24h ([4]; 10 mg/kg body weight, parameter of neuronal damage, p = 0.14 vs ceftriaxone): 92.3 ± 68.7 | half-maximal dose (KD) [4, 18]: 5.3 mg/kg body weight | maximum bactericidal rate (Emax) [4, 18]: -0.88 Δlog CFU/ml/h | bactericidal activity in CSF, Δlog CFU/ml/h ± SD ([4]; single dose of 1 mg/kg body weight (only bacteriostatic)): 0.01 ± 0.11 Δlog CFU/ml/h | bactericidal activity in CSF, Δlog CFU/ml/h ± SD ([4]; single dose of 2.5 mg/kg): -0.26 ± 0.22 Δlog CFU/ml/h | bactericidal activity in CSF, Δlog CFU/ml/h ± SD ([4]; single dose of 10 mg/kg body weight 12 h after infection): -0.29 ± 0.21 Δlog CFU/ml/h | Protein, lactate and lipoteichoic/teichoic acid concentrations in CSF ([4]; single dose of 10 mg/kg body weight compared with ceftriaxone 10 mg/kg/h): no significant differences | bactericidal activity in CSF, Δlog CFU/ml/h ([4]; single dose of 40 mg/kg): -0.52 ± 0.02 Δlog CFU/ml/h | terminal t1/2 ([10]; healthy men, single i.v. doses, to be interpreted cautiously): 10.5 days | area under the terminal phase as share of total AUC0-∞ ([10]; human, in vivo, iv): approximately 50% | MBC [11]: 0.03 µg/mL | MIC [11]: 0.015 µg/mL | time until S.pneumoniae killed / cultures sterile [5]: ≤ 1 h

N^DISACC-(4-(4-chlorophenyl)benzyl)A82846B Diphosphate
% dose excreted in urine, Mean (%CV) [10, 19]: 3.1 (42) % | T1/2, Mean (%CV) [10, 19]: 251 (96) hr | AUC0-∞, Mean (%CV) [10, 20]: 201 (62) (µg hr/ml)/(mg/kg) | Cmax, Mean (%CV) [10, 20]: 16.5 (20) (µg/ml)/(mg/kg) | Clp, Mean (%CV) ([10]; healthy men, single i.v. dose 0.5 to 3 mg/kg over 30 minutes, plasma clearance): 0.0896 (30) ml/min/kg | Vss, Mean (%CV) ([10]; healthy men, single i.v. dose 0.5 to 3 mg/kg over 30 minutes, steady-state volume of distribution): 1.08 (45) 1/kg

Teicoplanin
MIC90 [3, 15]: 0.06 µg/mL | MIC90 [3, 16]: 0.06 µg/mL | MIC90 [3, 17]: 0.06 µg/mL
